Like-named read-outs stand apart in the source and are kept apart here.
System: angiotensin-converting enzyme (ACE; EC. 3.4.15.1)
Assay type: biochemical
Conditions: for ACE inhibitory rate: HHL substrate, pH 8.3, 37 °C, HPLC-DAD 226 nm, mean ± SEM of three repeats
Description: The ACE inhibiting capability was evaluated according to the method described by Wang et al. ([14], which employs the hippuryl-histidilleucina tripeptide (Hip-His-Leu or HHL) as the substrate and evaluates the formation of hippuric acid (HA) by liquid chromatography (HPLC-DAD). Briefly, the commercial enzyme ACE and the substrate HHL (Sigma-Aldrich®) were dissolved in borate buffer (NaOH and boric acid) 100 mmol·L^−1, pH 8.3, supplemented with 300 mmol·L^−1 NaCl; their concentrations were 0.2 U/mL and 5 mmol·L^−1, respectively. Meanwhile, HA and captopril (standard ACE inhibitor) were dissolved in distilled water. The enzyme was pre-incubated in the presence or absence of inhibitor (isolated microginins or captopril) for […] at 37 °C, and the reaction was initiated by addition of substrate. After 30 min, the reaction was stopped by adding 250 μL of hydrochloric acid, and the sample was directly injected into the chromatographic system. […] After 5 min, the substrate was added to start the reaction.
The inhibitory rate was calculated, according to Wang et al., by I% = (A − B)/A × 100%; where A is the peak area of HA without adding ACE inhibitors; and B is the peak area of HA with the addition of ACE inhibitors. All data presented are the average of three repeats; the data are presented as means ± SEM.

ACE inhibitory rate (captopril 0.8 µM)	Compound	ACE inhibition (in words) (IC50-based comparison with other microginins)	ACE inhibitory rate (microginin 800 µg·mL^−1)
88.25 ± 1.19%	C[C@H](CS)C(=O)N1CCC[C@H]1C(=O)O [captopril, reference compound]	–	–
–	MeAhda-L-Val-L-Leu-L-HTyr-L-Tyr [MG 770]	efficiently inhibits ACE, with activity comparable to that of other previously described microginins	92.15 ± 2.76%

Reference: article PMC6149861, “Identification, In Vitro Testing and Molecular Docking Studies of Microginins’ Mechanism of Angiotensin-Converting Enzyme Inhibition” (Molecules : A Journal of Synthetic Chemistry and Natural …, 2017)
